Data: ChEMBL document CHEMBL1127995, “Synthesis and structure-activity relationships of pyrrolidine-modified analogs of the potent cholinergic channel activator, ABT 418” (Bioorg Med Chem Lett, 1994)

Experiments:
[1] = biological target: Neuronal acetylcholine receptor; alpha4/beta2 (Rattus norvegicus, UniProt P09483+P12390); assay: Binding affinity for Nicotinic acetylcholine receptor alpha4-beta2 by displacement of [3H](-)-cytisine from whole rat brain membranes; type: cell membranes, Membrane
[2] = In vitro half life was determined; type: ADME

Chain of Neuronal acetylcholine receptor; alpha4/beta2 (P09483 whole entry): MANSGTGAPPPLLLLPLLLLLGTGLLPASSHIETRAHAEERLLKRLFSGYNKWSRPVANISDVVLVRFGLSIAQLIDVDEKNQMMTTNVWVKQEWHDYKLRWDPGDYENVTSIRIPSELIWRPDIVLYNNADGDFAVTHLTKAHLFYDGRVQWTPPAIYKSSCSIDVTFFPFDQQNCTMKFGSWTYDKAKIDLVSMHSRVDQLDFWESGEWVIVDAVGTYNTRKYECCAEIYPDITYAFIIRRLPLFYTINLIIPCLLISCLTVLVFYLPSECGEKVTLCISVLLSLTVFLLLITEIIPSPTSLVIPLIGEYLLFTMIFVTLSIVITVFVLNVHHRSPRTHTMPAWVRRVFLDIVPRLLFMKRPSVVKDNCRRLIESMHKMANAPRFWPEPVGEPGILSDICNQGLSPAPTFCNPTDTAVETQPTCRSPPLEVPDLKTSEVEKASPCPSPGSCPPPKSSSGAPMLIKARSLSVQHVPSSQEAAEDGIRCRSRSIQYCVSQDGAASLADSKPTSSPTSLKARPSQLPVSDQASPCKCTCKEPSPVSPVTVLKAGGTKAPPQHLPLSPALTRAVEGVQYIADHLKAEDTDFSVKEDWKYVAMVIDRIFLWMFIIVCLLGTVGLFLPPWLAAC
Chain of Neuronal acetylcholine receptor; alpha4/beta2 (P12390 whole entry): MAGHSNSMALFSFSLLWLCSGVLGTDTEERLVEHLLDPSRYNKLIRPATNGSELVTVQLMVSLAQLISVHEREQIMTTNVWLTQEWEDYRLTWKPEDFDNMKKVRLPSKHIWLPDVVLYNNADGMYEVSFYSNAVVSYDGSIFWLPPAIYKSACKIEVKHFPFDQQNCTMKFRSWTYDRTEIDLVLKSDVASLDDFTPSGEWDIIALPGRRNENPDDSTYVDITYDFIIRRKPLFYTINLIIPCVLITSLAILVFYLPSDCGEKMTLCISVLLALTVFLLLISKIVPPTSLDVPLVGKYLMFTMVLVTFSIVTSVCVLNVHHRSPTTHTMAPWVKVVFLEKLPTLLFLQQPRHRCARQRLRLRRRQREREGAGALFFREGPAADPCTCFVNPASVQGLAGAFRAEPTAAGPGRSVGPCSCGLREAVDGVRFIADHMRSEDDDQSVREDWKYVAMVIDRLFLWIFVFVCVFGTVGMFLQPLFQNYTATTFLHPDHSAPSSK

SMILES | Ki [1] [µM] | half-life [2] [min]
Cc1cc([C@@H]2CC[C@H](c3ccccc3)N2C)on1 | > 10 | –
Cc1cc([C@@H]2[C@@H](CO)CCN2C)on1 | > 10 | –
COC(=O)CC1CC[C@@H](c2cc(C)no2)N1C (some centres undefined) | 3.5 | –
Cc1cc([C@@H]2CC[C@@H](C)N2C)on1 | 0.071 | 26
Cc1cc([C@@H]2CC[C@@H](c3ccccc3)N2C)on1 | 8 | –
CCCC[C@@H]1CC[C@@H](c2cc(C)no2)N1C | 1.02 | –
CCCC[C@H]1CC[C@@H](c2cc(C)no2)N1C | 3.67 | –
Cc1cc([C@@H]2CC[C@H](C)N2C)on1 | 5 | 48.3
Cc1cc([C@@H]2C(C)CCN2C)on1 (single isomer, unassigned) | > 10 | –
Cc1cc([C@@H]2C(COC(=S)Oc3ccccc3)CCN2C)on1 (single isomer, unassigned) | 0.84 | –
Cc1cc([C@@H]2CCCN2C)on1 [ABT-418] | 0.003 | 47.3
